Measurements: article PMC6499206, “Quantification of Volatile Metabolites Derived From Garlic (Allium sativum) in Human Urine” (Frontiers in Nutrition, 2019)

Test: Quantification of garlic-derived metabolites in human urine after ingestion of 3 g raw garlic (SIDA, SAFE, HRGC-MS / HRGC-GC-MS)
Assay type: in vivo
Set-up: metabolite in urine related to creatinine: unit not given here
Conditions: for highest detected concentration of the sample series: same bulb
Text: Human urine samples were obtained from 18 volunteers (age 22–38 years, mean 27 years; 11 females, 7 males); thereby, one volunteer conducted the whole experimental series twice. At the time of examination, volunteers reported no known illness that might have potentially influenced the metabolism or the excretion of urine. The test persons were instructed to avoid foods that were rich in sulfur-containing substances at the testing day as well as 2 days preceding the testing day, namely garlic, onion, wild garlic, chives, cabbage, and leek, and were only allowed to consume the garlic sample provided in the course of the experiments. Additionally, subjects were asked to keep records of the food (including food supplements) and beverages they consumed during these 3 testing days. Generally, the overall panelists' requirements were in accordance with our previous studies ([5], [16]).
On the sampling day, the outer garlic cloves of a whole garlic bulb were peeled and cut into ~3 mm cubes by using a garlic cutter (Genius GmbH, Limburg/Lahn, Germany). Subsequently these cubes were thoroughly mixed and aliquoted into 3 g portions. Three to four test persons conducted the experiment at the same day. Each test person was asked to ingest a garlic portion of 3 g. In total, eight consecutive urine samples were provided by each test person, comprising one whole urine set. The samples were collected in sterile brown glass bottles, with sampling times as follows: one sample was provided directly prior to garlic consumption. The series of the second to eighth sample was then obtained at about 0.5, 1, 2, 4, 6, 8, and 24 h after garlic consumption, respectively. Between the first urine sample (prior to garlic consumption) and the seventh urine sample (8 h after garlic consumption) test persons only spent urine at the specific time points mentioned before. Another sample was provided at the next morning (24 h after garlic consumption). Between the samples provided 8 and 24 h after garlic consumption no urine was collected. All samples were immediately placed into a −80°C freezer and were kept frozen until further analysis.
The samples of each set were termed according to their sampling time. The following list provides the time intervals that are related to the respective sample name: • - pre: before garlic consumption • - 0.5 h post: 0.4–0.8 h after garlic consumption • - 1 h post: 0.9–1.3 h after garlic consumption • - 2 h post: 1.8 h−2.2 h after garlic consumption • - 4 h post: 3.8–4.4 h after garlic consumption • - 6 h post: 5.8–6.4 h after garlic consumption • - 8 h post: 7.8–8.4 h after garlic consumption • - 24 h post: 23.8–25.6 h after garlic consumption
A creatinine kit (Labor+Technik Eberhard Lehmann GmbH, Berlin, Germany) was used to determine the creatinine content in each urine sample. The determination principle of this kit is based on the reaction of creatinine with picric acid under basic conditions (Jaffé reaction). The formed complex was detected photometrically at a wavelength of 492 nm.
For quantification purposes, the deuterated standards ^2H3-AMS, ^2H3-AMSO, and ^2H3-AMSO2 were added to the sample and stirred for 10 min. Subsequently, DCM was added in a ratio of 1:2 (DCM/human urine; v/v) and this solution was stirred for further 30 min at room temperature. To isolate the volatile fraction from the urine samples we then applied SAFE-distillation ([17]), thereby distilling the respective samples at 50°C. After completion of the distillation process, 10 mL of DCM were applied in each case to rinse the SAFE apparatus and to ensure complete transition of the volatile compounds. This process was repeated with another 10 mL of DCM. After thawing, the obtained aqueous distillate phase was extracted three times with 25 mL DCM. The organic phases were combined, dried over anhydrous Na2SO4 and concentrated to a total volume of 100 μL by means of Vigreux distillation and subsequent micro-distillation at 50°C. […]

[1] = U XII, 2 h post (1.85 h), 3 g raw garlic
[2] = U XII, 4 h post (3.80 h), 3 g raw garlic
[3] = U XII, 6 h post (5.82 h), 3 g raw garlic
[4] = U XII, 8 h post (7.82 h), 3 g raw garlic
[5] = U XII, 24 h post (23.92 h), 3 g raw garlic
[6] = U XII, pre (-0.08 h), 3 g raw garlic
[7] = U XIII, 0.5 h post (0.42 h), 3 g raw garlic
[8] = U XIII, 1 h post (0.92 h), 3 g raw garlic
[9] = U XIII, 2 h post (1.92 h), 3 g raw garlic
[10] = U XIII, 4 h post (3.92 h), 3 g raw garlic
[11] = U XIII, 6 h post (5.92 h), 3 g raw garlic
[12] = U XIII, 8 h post (7.92 h), 3 g raw garlic
[13] = U XIII, 24 h post (23.92 h), 3 g raw garlic
[14] = U XIII, pre (-0.08 h), 3 g raw garlic

Question: Which “metabolite concentration in urine” value [1] does the source give for `C=CCS(C)(=O)=O` [AMSO2, allyl methyl sulfone] here?
Answer: 48.2 µg/kg

Question: What about the “metabolite concentration in urine, creatinine-normalized” value [1] of the same compound?
Answer: 72.4 µg/mmol creatinine

Question: And the “metabolite concentration in urine” value [2]?
Answer: 76.1 µg/kg

Question: And the “metabolite concentration in urine, creatinine-normalized” value [2]?
Answer: 28.5 µg/mmol creatinine

Question: And the “metabolite concentration in urine” value [3]?
Answer: 82.8 µg/kg

Question: What about the “metabolite concentration in urine, creatinine-normalized” value [3] of the same compound?
Answer: 14.3 µg/mmol creatinine

Question: And the “metabolite concentration in urine” value [4]?
Answer: 61.4 µg/kg

Question: What about the “metabolite concentration in urine, creatinine-normalized” value [4] of the same compound?
Answer: 21.6 µg/mmol creatinine

Question: What about the “metabolite concentration in urine” value [5] of the same compound?
Answer: 6.6 µg/kg

Question: What about the “metabolite concentration in urine, creatinine-normalized” value [5] of the same compound?
Answer: 0.4 µg/mmol creatinine

Question: And the “metabolite concentration in urine” value [6]?
Answer: 2.0 µg/kg

Question: What about the “metabolite concentration in urine, creatinine-normalized” value [6] of the same compound?
Answer: 0.1 µg/mmol creatinine

Question: What about the “metabolite concentration in urine” value [7] of the same compound?
Answer: 19.8 µg/kg

Question: What about the “metabolite concentration in urine, creatinine-normalized” value [7] of the same compound?
Answer: 12.4 µg/mmol creatinine

Question: And the “metabolite concentration in urine” value [8]?
Answer: 145.0 µg/kg

Question: And the “metabolite concentration in urine, creatinine-normalized” value [8]?
Answer: 58.5 µg/mmol creatinine

Question: And the “metabolite concentration in urine” value [9]?
Answer: 182.5 µg/kg

Question: What about the “metabolite concentration in urine, creatinine-normalized” value [9] of the same compound?
Answer: 52.4 µg/mmol creatinine

Question: And the “metabolite concentration in urine” value [10]?
Answer: 174.3 µg/kg

Question: What about the “metabolite concentration in urine, creatinine-normalized” value [10] of the same compound?
Answer: 36.8 µg/mmol creatinine

Question: What about the “metabolite concentration in urine” value [11] of the same compound?
Answer: 105.0 µg/kg

Question: And the “metabolite concentration in urine, creatinine-normalized” value [11]?
Answer: 9.0 µg/mmol creatinine

Question: What about the “metabolite concentration in urine” value [12] of the same compound?
Answer: 67.5 µg/kg

Question: And the “metabolite concentration in urine, creatinine-normalized” value [12]?
Answer: 7.7 µg/mmol creatinine

Question: And the “metabolite concentration in urine” value [13]?
Answer: 8.5 µg/kg

Question: And the “metabolite concentration in urine, creatinine-normalized” value [13]?
Answer: 1.0 µg/mmol creatinine

Question: And the “metabolite concentration in urine” value [14]?
Answer: < LOD^3

Question: What about the “metabolite concentration in urine, creatinine-normalized” value [14] of the same compound?
Answer: < LOD^3

Question: What about the “variation factor of the concentration maxima between test persons” value (Urine XIII-XVI, highest vs lowest maximum) of the same compound?
Answer: 2.2

Question: What about the “highest detected concentration of the sample series” value (from here on “highest detected concentration”) (Urine XIII, 3 g raw garlic) of the same compound?
Answer: 58.5 μg/mmol creatinine

Question: And the “highest detected concentration” value (Urine XIV (AMS: printed Urine UIV), 3 g raw garlic)?
Answer: 60.1 μg/mmol creatinine

Question: What about the “highest detected concentration” value (Urine XV, 3 g raw garlic) of the same compound?
Answer: 83.1 μg/mmol creatinine

Question: What about the “time of highest concentration in urine after garlic consumption” value (Urine XVI, 3 g raw garlic) of the same compound?
Answer: 4 h

Question: And the “highest detected concentration” value (Urine XVI, 3 g raw garlic)?
Answer: 37.19 μg/mmol creatinine

Question: What about the “metabolite in urine related to creatinine” value (shortened to “metabolite in urine related”) (urine set U XIX, 0.5 h post (0.50 h), garlic 3.1133 g) of the same compound?
Answer: 4.4

Question: And the “metabolite in urine related” value (urine set U XIX, 1 h post (1.00 h), garlic 3.1133 g)?
Answer: 41.2

Question: And the “metabolite in urine related” value (urine set U XIX, 2 h post (2.00 h), garlic 3.1133 g)?
Answer: 77.6

Question: And the “metabolite in urine related” value (urine set U XIX, 4 h post (4.00 h), garlic 3.1133 g)?
Answer: 41.4

Question: And the “metabolite in urine related” value (urine set U XIX, 6 h post (6.20 h), garlic 3.1133 g)?
Answer: 30.7

Question: And the “metabolite in urine related” value (urine set U XIX, 8 h post (7.93 h), garlic 3.1133 g)?
Answer: 24.3

Question: And the “metabolite in urine related” value (urine set U XIX, 24 h post (23.98 h), garlic 3.1133 g)?
Answer: 1.8

Question: And the “metabolite in urine related” value (urine set U XIX, pre (-0.07 h), garlic 3.1133 g)?
Answer: < LOD^3

Question: What about the “metabolite in urine related” value (urine set U XVII, 0.5 h post (0.58 h), garlic 3.1559 g) of the same compound?
Answer: 0.3

Question: What about the “metabolite in urine related” value (urine set U XVII, 1 h post (1.00 h), garlic 3.1559 g) of the same compound?
Answer: 4.7

Question: What about the “metabolite in urine related” value (urine set U XVII, 2 h post (2.17 h), garlic 3.1559 g) of the same compound?
Answer: 32.1

Question: What about the “metabolite in urine related” value (urine set U XVII, 4 h post (4.00 h), garlic 3.1559 g) of the same compound?
Answer: 27.6

Question: And the “metabolite in urine related” value (urine set U XVII, 6 h post (6.08 h), garlic 3.1559 g)?
Answer: 3.0

Question: And the “metabolite in urine related” value (urine set U XVII, 8 h post (8.00 h), garlic 3.1559 g)?
Answer: 5.1

Question: What about the “metabolite in urine related” value (urine set U XVII, 24 h post (23.92 h), garlic 3.1559 g) of the same compound?
Answer: 0.7

Question: What about the “metabolite in urine related” value (urine set U XVII, pre (-0.08 h), garlic 3.1559 g) of the same compound?
Answer: traces^3

Question: What about the “metabolite in urine related” value (urine set U XVIII, 0.5 h post (0.63 h), garlic 3.1981 g) of the same compound?
Answer: 14.7

Question: What about the “metabolite in urine related” value (urine set U XVIII, 1 h post (1.05 h), garlic 3.1981 g) of the same compound?
Answer: 40.5

Question: What about the “metabolite in urine related” value (urine set U XVIII, 2 h post (2.00 h), garlic 3.1981 g) of the same compound?
Answer: 68.1

Question: What about the “metabolite in urine related” value (urine set U XVIII, 4 h post (3.97 h), garlic 3.1981 g) of the same compound?
Answer: 56.4

Question: And the “metabolite in urine related” value (urine set U XVIII, 6 h post (5.97 h), garlic 3.1981 g)?
Answer: 26.3

Question: What about the “metabolite in urine related” value (urine set U XVIII, 8 h post (8.30 h), garlic 3.1981 g) of the same compound?
Answer: 42.2

Question: What about the “metabolite in urine related” value (urine set U XVIII, 24 h post (24.13 h), garlic 3.1981 g) of the same compound?
Answer: 1.3

Question: What about the “metabolite in urine related” value (urine set U XVIII, pre (-0.08 h), garlic 3.1981 g) of the same compound?
Answer: < LOD^3
